{
  "source": "patent US20080033018A1",
  "about": "“Therapeutic Agents For Overactive Bladder” (Chugai Seiyaku Kabushiki Kaisha, priority 2004, published 2008)",
  "key": {"[1]": {"test_system": "urethral obstruction rats", "experiment": "Urination frequency after water loading in rat urethral obstruction model", "format": "in vivo", "conditions": "over 210 minutes", "description": "As described above, there are many causes that induce frequent urination, and dysuria-induced frequent urination is also known. A rat animal model of urethral obstruction has been reported as a model for efficacy verification of many ameliorating agents for frequent urination (Non-patent Documents 17 and 18). In this example, a midline incision was made in the lower quadrant of each rat (9 weeks of age) under pentobarbital anesthesia, and the proximal urethra was ligatured together with a stainless rod (φ1 mm) by using a 3-0 silk suture, followed by pulling out the rod to create a urethral obstruction model. At 45 days after urethral obstruction, the rats were subjected to water loading (30 ml/kg, po; “water loading” as used herein refers to forced oral administration of distilled water using a sound) and observed for their urination frequency over 210 minutes, such that animals having a urination frequency greater than that of normal animals (5 times) were selected as animals with frequent urination. These animals were administered orally with nicorandil (1 mg/kg) or KRN2391 (1 mg/kg) (dissolved in distilled water for water loading) and then observed for their urination frequency over 210 minutes (n=5 for each group)."}, "nNOS-Knockout mice [2]": {"test_system": "nNOS-Knockout mice", "experiment": "Urination dynamics (urination frequency, urination volume) in nNOS-Knockout mice, observation system for urination behavior", "format": "in vivo", "description": "There has been established no animal models of disease reflecting frequent urination in elderly male subjects. In carefully searching various kinds of information, nNOS-Knockout mice were pointed out to have a possibility as a model of frequent urination (dilatation of urinary bladder, hyperplasia of smooth muscle, lack of relaxation responses, see Non-patent Document 9 for its creation) in May, 1997 (Non-patent Document 10), but have not been studied as a therapeutic model. nNOS-Knockout mice have now been investigated for their possibility as a model of frequent urination by using an instrument (an observation system for urination behavior, Muromachi Kikai Co., Ltd., Japan) to determine urination dynamics (urination volume and urination frequency) of the mice. […]\nNicorandil was given to nNOS-Knockout mice (8-13 months of age) by forced oral administration at 6 mg/kg/day for 7 days using a sound for oral administration. […]\nThe daily urination frequency was measured with an observation system for urination behavior (Muromachi Kikai Co., Ltd., Japan). […]\nFurthermore, with the aim of clarifying the contribution of the nicorandil's nitrate-like action, pinacidil (SIGMA) known as a pure and potent KATP channel opener was also used for comparison of the urination frequency (FIG. 2)."}, "[3]": {"test_system": "urethral obstruction rats", "conditions": "rat, in vivo, po, 1 mg/kg", "experimental": "“Urinary retention” as used herein refers to a state where the urination volume is 3 hr=0.\nRats at 45 days after urethral obstruction (φ1 mm, urethra was obstructed in rats at 9 weeks of age) were administered orally with nicorandil (3 mg/kg) or KRN2391 (1 mg/kg), subjected to water loading (30 ml/kg, po) and then monitored for their urination volume over 180 minutes (n=10 for each group)."}, "[4]": {"test_system": "non-anesthetized conscious rats", "experiment": "Hypotensive effect (blood pressure) in non-anesthetized conscious rats after oral administration", "format": "in vivo, rat", "conditions": "compared at a dosage causing a 20 mmHg reduction in blood pressure, FIG. 4", "from_the_text": "In view of this fact, to study a hypotensive effect regarded as a side effect in the amelioration of frequent urination, both drugs were compared for their effect on blood pressure when orally administrated to non-anesthetized conscious rats (“non-anesthetized conscious rat” as used herein refers to an animal pre-treated such that a catheter for blood pressure measurement is inserted and placed in its femoral artery under anesthesia to ensure blood pressure monitoring, which animal is used on the following day after the anesthesia wears off). […] The measurement of blood pressure was performed as follows: the catheter for blood pressure measurement was connected to a blood pressure transducer (Nihon Kohden Corporation, Japan) and input into a polygraph (Nihon Kohden Corporation, Japan)."}, "KATP channel": {"test_system": "KATP channel", "conditions": "report, Non-patent Document 7; cited from earlier work"}, "nNOS-Knockout mice [5]": {"test_system": "nNOS-Knockout mice", "experiment": "Daily urination volume in nNOS-Knockout mice (oliguria)", "format": "in vivo", "conditions": "nNOS-Knockout mice 12-16 weeks, 1 mg/kg, 24 hours after administration, p<0.05"}, "[6]": {"conditions": "Enarmon-depot 3.6 mg/kg/day, sc, 7 days, n=5, vs control group (n=8), p<0.05"}},
  "data": [
    {"smiles": "N#CNC(=NCCO[N+](=O)[O-])c1cccnc1", "note": "[KRN2391]", "values": [
      {"measurement": "reduction of urination frequency", "setting": "[1]; 1 mg/kg po, vs before administration", "value": 34.3, "unit": "%"},
      {"measurement": "urination frequency after administration", "setting": "[1]; 45 days after obstruction, 1 mg/kg po with water loading 30 ml/kg, n=5, p<0.05", "value": "2.4±0.8", "unit": "times/210 minutes"},
      {"measurement": "effect on daily urination frequency (ameliorating effect on urination)", "setting": "nNOS-Knockout mice [2]; 1 mg/kg, p<0.05, FIG. 2", "value": "significant ameliorating effect"},
      {"measurement": "number of animals without urination", "setting": "[3]", "value": 5, "unit": "animals"},
      {"measurement": "urinary retention", "setting": "[3]", "value": "a state of urinary retention was observed"},
      {"measurement": "urination volume", "setting": "[3]", "value": "0.50 ± 0.30", "unit": "mL"},
      {"measurement": "amount producing hypotensive effect, smaller than nicorandil", "setting": "[4]", "value": 10, "unit": "fold"},
      {"measurement": "hypotensive effect due to KATP channel opening action, stronger than that of nicorandil", "setting": "KATP channel", "value": 25, "unit": "fold"},
      {"measurement": "effect on daily urination volume", "setting": "nNOS-Knockout mice [5]", "value": "significant inhibitory effect"}
    ]},
    {"smiles": "CC(N/C(=N\\C#N)Nc1ccncc1)C(C)(C)C", "note": "(stereo not shown) [pinacidil]", "values": [
      {"measurement": "urination frequency", "setting": "nNOS-Knockout mice [2]; oral 0.3 mg/kg (dose strongly affecting the mouse cardiovascular system), FIG. 2", "value": "no significant decrease"}
    ]},
    {"smiles": "CCCCCCC(=O)O[C@H]1CC[C@H]2[C@@H]3CCC4=CC(=O)CC[C@]4(C)[C@H]3CC[C@]12C", "note": "[testosterone, testosterone enanthate]", "values": [
      {"measurement": "daily urination volume", "setting": "nNOS-Knockout mice [2]; Enarmon-depot 3.6 mg/kg/day, sc, 7 days, n=5, vs control group (n=8)", "value": "no change"},
      {"measurement": "single urination volume", "setting": "nNOS-Knockout mice [2]; [6]", "value": "significant increase"},
      {"measurement": "urination frequency", "setting": "nNOS-Knockout mice [2]; [6]", "value": "significant decrease"}
    ]}
  ]
}
